Reference: PubChem BioAssay AID248 (DTP/NCI, 2004)
Where “and” joins values, the source holds several entries; their conditions need not be identical. Equal entries are not always repeated. Inconclusive results and toxic doses are left out. No stated cut-off is given here; in the data, active means T/C of 150% or more; inactive means T/C below 125%.

System: L1210 leukemia ip in BDF1 mice, survival T/C
Assay: NCI In Vivo Anticancer Drug Screen. Data for tumor model L1210 Leukemia (intraperitoneal) in B6D2F1 (BDF1) mice
Conditions: endpoint: mean survival time, higher = longer survival
Outline: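 In this screen, tumor-bearing mice given compound are compared to those given vehicle, and their survival values are reported as a treated-to-control quotient.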

[1] = dose: 50.0 mg/kg/injection, schedule: Q01DX009 (ip), vehicle: saline
[2] = dose: 100.0 mg/kg/injection, schedule: Q01DX009 (ip), vehicle: saline
[3] = dose: 200.0 mg/kg/injection, schedule: Q01DX009 (ip), vehicle: saline
[4] = dose: 100.0 mg/kg/injection, schedule: Q04DX003 (ip), vehicle: saline with Tween-80
[5] = dose: 200.0 mg/kg/injection, schedule: Q04DX003 (ip), vehicle: saline with Tween-80
[6] = dose: 400.0 mg/kg/injection, schedule: Q04DX003 (ip), vehicle: saline with Tween-80
[7] = dose: 50.0 mg/kg/injection, schedule: Q01DX001 (ip), vehicle: saline
[8] = dose: 100.0 mg/kg/injection, schedule: Q01DX001 (ip), vehicle: saline
[9] = dose: 200.0 mg/kg/injection, schedule: Q01DX001 (ip), vehicle: saline
[10] = dose: 400.0 mg/kg/injection, schedule: Q01DX001 (ip), vehicle: saline

Measured: T/C

CS(=O)(=O)N(CC(=O)O)Cc1ccccc1
inactive: [1] 101 % of control | dose: 50.0 mg/kg/injection, schedule: Q01DX009 (ip), vehicle: sodium bicarbonate 116 % of control | [2] 101 % of control | dose: 100.0 mg/kg/injection, schedule: Q01DX009 (ip), vehicle: sodium bicarbonate 106 % of control | dose: 100.0 mg/kg/injection, schedule: Q04DX003 (ip), vehicle: sodium bicarbonate 124 % of control | [3] 95 % of control | dose: 200.0 mg/kg/injection, schedule: Q01DX009 (ip), vehicle: sodium bicarbonate 101 % of control | dose: 200.0 mg/kg/injection, schedule: Q04DX003 (ip), vehicle: sodium bicarbonate 91 % of control | dose: 400.0 mg/kg/injection, schedule: Q01DX009 (ip), vehicle: saline 97 % of control | dose: 400.0 mg/kg/injection, schedule: Q01DX009 (ip), vehicle: sodium bicarbonate 104 % of control | dose: 400.0 mg/kg/injection, schedule: Q04DX003 (ip), vehicle: sodium bicarbonate 91 % of control

NC(=O)NC(N)=S
inactive: [4] 99 % of control | [5] 103 % of control | [6] 103 % of control

O=C(O)c1ccc(N/N=C/C(F)(F)F)cc1
inactive: dose: 25.0 mg/kg/injection, schedule: Q01DX009 (ip), vehicle: saline 95 % of control and 98 % of control | [7] 110 % of control | [1] 93 % of control and 106 % of control | [8] 96 % of control | [2] 95 % of control and 87 % of control | dose: 100.0 mg/kg/injection, schedule: Q04DX002 (ip), vehicle: saline 106 % of control and 109 % of control | dose: 200.0 mg/kg/injection, schedule: Q04DX002 (ip), vehicle: saline 96 % of control

COc1ccc(/C=C(\CC(=O)c2ccccc2)C(=O)Nc2ccccc2)cc1
inactive: [8] 93 % of control | dose: 100.0 mg/kg/injection, schedule: Q04DX003 (ip), vehicle: saline 109 % of control | [9] 96 % of control | dose: 200.0 mg/kg/injection, schedule: Q04DX003 (ip), vehicle: saline 98 % of control | [10] 103 % of control | dose: 400.0 mg/kg/injection, schedule: Q04DX003 (ip), vehicle: saline 95 % of control

CC12CCCCC1CC(=O)/C(=C\O)C2 (stereo unspecified)
inactive: dose: 25.0 mg/kg/injection, schedule: Q04DX002 (ip), vehicle: DMSO 94 % of control | dose: 50.0 mg/kg/injection, schedule: Q04DX002 (ip), vehicle: DMSO 90 % of control

CCCCC(NC(=O)CNC(=O)OCc1ccccc1)C(=O)OC (stereo unspecified)
inactive: [4] 108 % of control | [5] 100 % of control | [6] 93 % of control

O=c1c2ccccc2[nH]c2cc(Cl)ccc12
inactive: dose: 50.0 mg/kg/injection, schedule: Q01DX Z (ip), vehicle: carboxymethylcellulose (CMC) 109 % of control | dose: 100.0 mg/kg/injection, schedule: Q01DX Z (ip), vehicle: carboxymethylcellulose (CMC) 103 % of control | dose: 200.0 mg/kg/injection, schedule: Q01DX Z (ip), vehicle: carboxymethylcellulose (CMC) 97 % of control | dose: 400.0 mg/kg/injection, schedule: Q01DX Z (ip), vehicle: carboxymethylcellulose (CMC) 115 % of control

NC(CCc1c[nH]c(=O)[nH]c1=O)C(=O)O (stereo unspecified)
inactive: [7] 104 % of control | [8] 100 % of control | [9] 98 % of control | [10] 110 % of control

CC(C)NCC(O)c1ccc(O)c(O)c1 (stereo unspecified)
inactive: [1] 103 % of control | dose: 75.0 mg/kg/injection, schedule: Q01DX001 (ip), vehicle: saline 105 % of control | dose: 100.0 mg/kg/injection, schedule: Q01DX009 (ip), vehicle: Klucel (hydroxypropylcellulose) (HPC) 108 % of control and 111 % of control | [2] 110 % of control | dose: 100.0 mg/kg/injection, schedule: Q04DX003 (ip), vehicle: Klucel (hydroxypropylcellulose) (HPC) 104 % of control | dose: 150.0 mg/kg/injection, schedule: Q01DX001 (ip), vehicle: saline 100 % of control | dose: 200.0 mg/kg/injection, schedule: Q01DX009 (ip), vehicle: Klucel (hydroxypropylcellulose) (HPC) 113 % of control | [3] 114 % of control | dose: 200.0 mg/kg/injection, schedule: Q04DX003 (ip), vehicle: Klucel (hydroxypropylcellulose) (HPC) 100 % of control | dose: 300.0 mg/kg/injection, schedule: Q01DX001 (ip), vehicle: saline 123 % of control | dose: 400.0 mg/kg/injection, schedule: Q04DX003 (ip), vehicle: Klucel (hydroxypropylcellulose) (HPC) 100 % of control
